Results from patent US11339419B2, “Scavenger protein(s) for improved preservation of analyte detection sensor(s) and method(s) of use thereof” (Siemens Healthcare Diagnostics Inc., priority 2017, dated 2022).
Several values for one entry are separate records, joined by “and”; a condition that tells them apart may be missing. Identical values can stand only once.

System: sarcosine oxidase (Toyobo)
Assay: Toyobo Sarcosine Oxidase Enzyme Absorbance with BSA and MIT
Type: biochemical
Settings: for Sarcosine Oxidase Enzyme Absorbance, MEAN of 7-11 / Sarcosine Oxidase Enzyme Absorbance, replicates 7-11 / Sarcosine Oxidase Enzyme Absorbance, MEAN of 1-5 / Sarcosine Oxidase Enzyme Absorbance, solutions 1-5: 37° C.
[1] = Day 0, 5 mg/mL BSA only, no MIT (50 ppm MIT row)
[2] = Day 0, 5 mg/mL BSA only, no MIT (100 ppm MIT row)
[3] = Day 0, 25 mg/mL BSA only, no MIT (50 ppm MIT row)
[4] = Day 0, 25 mg/mL BSA only, no MIT (100 ppm MIT row)
[5] = Day 0, 50 mg/mL BSA only, no MIT (50 ppm MIT row)
[6] = Day 0, 50 mg/mL BSA only, no MIT (100 ppm MIT row)
[7] = Day 0, 50 ppm MIT, 25 mg/mL BSA
[8] = Day 0, 50 ppm MIT, 50 mg/mL BSA
[9] = Day 4, 5 mg/mL BSA only, no MIT (50 ppm MIT row)
[10] = Day 4, 5 mg/mL BSA only, no MIT (100 ppm MIT row)
[11] = Day 4, 25 mg/mL BSA only, no MIT (50 ppm MIT row)
[12] = Day 4, 25 mg/mL BSA only, no MIT (100 ppm MIT row)
[13] = Day 4, 50 mg/mL BSA only, no MIT (50 ppm MIT row)
[14] = Day 4, 50 mg/mL BSA only, no MIT (100 ppm MIT row)
[15] = Day 14, 5 mg/mL BSA only, no MIT (50 ppm MIT row)
[16] = Day 14, 5 mg/mL BSA only, no MIT (100 ppm MIT row)
[17] = Day 14, 25 mg/mL BSA only, no MIT (50 ppm MIT row)

Protocol: Tables 1-4 depict aqueous solutions comprising varying concentrations of BSA (at concentrations of 0 mg/mL, 5 mg/mL, 25 mg/mL, and 50 mg/mL), varying concentrations of MIT (at concentrations of 50 parts per million and 100 parts per million) or Proclin™ 300 (at concentrations of 0.7% and 1.4%) biocides over a particular time period (measurements were taken at days 0, 4, and 14 after exposure of the enzyme(s) to the aqueous solutions) and the associated enzyme absorbance measurements for sarcosine oxidase (commercially offered for sale by BBI Solutions and Toyobo). Absorbance measurements of the sarcosine oxidase enzyme(s) were taken via spectrophotometer for each aqueous solution (represented as columns 1-5 in Tables 1-4—column 6 is a blank), the absorbance being directly proportional to the enzyme activity being measured-which for Tables 1-4 is sarcosine oxidase enzyme activity. Accordingly, the higher the absorbance measurement, the higher the enzyme activity of sarcosine oxidase. Columns 7-11 represent five replicate readings in which the aqueous solution only contains BSA (i.e., there is no biocide(s) present in the aqueous solution). In addition, the mean values, standard deviations, and coefficients of variation are also presented for the enzyme activity/absorbance of each aqueous solution. All measurements were taken at 37° C.
As depicted below in Table 2, sarcosine oxidase (commercially offered for sale by Toyobo) enzyme activity is measured against various concentrations of MIT (biocide) and BSA (scavenger protein) over a period of 14 days (with absorbance measurements taken at 0, 4, and 14 days) for five different aqueous solutions (represented as columns 1-5-column 6 is a blank).

Sarcosine Oxidase Enzyme Absorbance, MEAN of 7-11 [1]: 1.41
Sarcosine Oxidase Enzyme Absorbance, MEAN of 7-11 [2]: 1.39
Sarcosine Oxidase Enzyme Absorbance, MEAN of 7-11 [3]: 1.40
Sarcosine Oxidase Enzyme Absorbance, MEAN of 7-11 [4]: 1.38
Sarcosine Oxidase Enzyme Absorbance, MEAN of 7-11 [5]: 1.35
Sarcosine Oxidase Enzyme Absorbance, MEAN of 7-11 [6]: 1.38
% Bias (Day 0, 50 ppm MIT vs no MIT, 5 mg/mL BSA): −0.3%
% Bias (Day 0, 50 ppm MIT vs no MIT, 25 mg/mL BSA): −1.0%
% Bias (Day 0, 50 ppm MIT vs no MIT, 50 mg/mL BSA): 2.4%
Sarcosine Oxidase Enzyme Absorbance, MEAN of 1-5 (Day 0, 50 ppm MIT, 5 mg/mL BSA): 1.41
Sarcosine Oxidase Enzyme Absorbance, MEAN of 1-5 [7]: 1.39
Sarcosine Oxidase Enzyme Absorbance, MEAN of 1-5 [8]: 1.39
Sarcosine Oxidase Enzyme Absorbance, solutions 1-5 [8]: 1.439 and 1.435 and 1.441
% Bias (Day 0, 100 ppm MIT vs no MIT, 5 mg/mL BSA): 0.3%
% Bias (Day 0, 100 ppm MIT vs no MIT, 25 mg/mL BSA): −0.7%
% Bias (Day 0, 100 ppm MIT vs no MIT, 50 mg/mL BSA): −1.1%
Sarcosine Oxidase Enzyme Absorbance, MEAN of 1-5 (Day 0, 100 ppm MIT, 5 mg/mL BSA): 1.39
Sarcosine Oxidase Enzyme Absorbance, MEAN of 1-5 (Day 0, 100 ppm MIT, 25 mg/mL BSA): 1.37
Sarcosine Oxidase Enzyme Absorbance, MEAN of 1-5 (Day 0, 100 ppm MIT, 50 mg/mL BSA): 1.37
Sarcosine Oxidase Enzyme Absorbance, MEAN of 7-11 [9]: 0.10
Sarcosine Oxidase Enzyme Absorbance, MEAN of 7-11 [10]: 0.79
Sarcosine Oxidase Enzyme Absorbance, replicates 7-11 [10]: 0.933 and 0.941 and 0.967 and 0.963
Sarcosine Oxidase Enzyme Absorbance, MEAN of 7-11 [11]: 1.22
Sarcosine Oxidase Enzyme Absorbance, MEAN of 7-11 [12]: 1.23
Sarcosine Oxidase Enzyme Absorbance, MEAN of 7-11 [13]: 1.24
Sarcosine Oxidase Enzyme Absorbance, MEAN of 7-11 [14]: 1.24
% Bias (Day 4, 50 ppm MIT vs no MIT, 5 mg/mL BSA): 775.9%
% Bias (Day 4, 50 ppm MIT vs no MIT, 25 mg/mL BSA): 11.9%
% Bias (Day 4, 50 ppm MIT vs no MIT, 50 mg/mL BSA): 12.4%
Sarcosine Oxidase Enzyme Absorbance, MEAN of 1-5 (Day 4, 50 ppm MIT, 5 mg/mL BSA): 0.86
Sarcosine Oxidase Enzyme Absorbance, MEAN of 1-5 (Day 4, 50 ppm MIT, 25 mg/mL BSA): 1.37
Sarcosine Oxidase Enzyme Absorbance, MEAN of 1-5 (Day 4, 50 ppm MIT, 50 mg/mL BSA): 1.40
% Bias (Day 4, 100 ppm MIT vs no MIT, 5 mg/mL BSA): 16.5%
% Bias (Day 4, 100 ppm MIT vs no MIT, 25 mg/mL BSA): 10.4%
% Bias (Day 4, 100 ppm MIT vs no MIT, 50 mg/mL BSA): 11.1%
Sarcosine Oxidase Enzyme Absorbance, MEAN of 1-5 (Day 4, 100 ppm MIT, 5 mg/mL BSA): 0.92
Sarcosine Oxidase Enzyme Absorbance, MEAN of 1-5 (Day 4, 100 ppm MIT, 25 mg/mL BSA): 1.35
Sarcosine Oxidase Enzyme Absorbance, MEAN of 1-5 (Day 4, 100 ppm MIT, 50 mg/mL BSA): 1.37
Sarcosine Oxidase Enzyme Absorbance, MEAN of 7-11 [15]: 0.29
Sarcosine Oxidase Enzyme Absorbance, MEAN of 7-11 [16]: 0.31
Sarcosine Oxidase Enzyme Absorbance, MEAN of 7-11 [17]: 1.36
Substance: bovine serum albumin [BSA]
Sarcosine Oxidase Enzyme Absorbance, replicates 7-11 [1]: 1.444 and 1.45 and 1.459 and 1.485 and 1.463
Sarcosine Oxidase Enzyme Absorbance, replicates 7-11 [2]: 1.459 and 1.421 and 1.427 and 1.439 and 1.436
Sarcosine Oxidase Enzyme Absorbance, replicates 7-11 [3]: 1.448 and 1.453 and 1.45 and 1.442 and 1.444
Sarcosine Oxidase Enzyme Absorbance, replicates 7-11 [4]: 1.447 and 1.422 and 1.418 and 1.443 and 1.413
Sarcosine Oxidase Enzyme Absorbance, replicates 7-11 [5]: 1.387 and 1.402 and 1.388 and 1.408 and 1.406
Sarcosine Oxidase Enzyme Absorbance, replicates 7-11 [6]: 1.437 and 1.434 and 1.424 and 1.423 and 1.416
Sarcosine Oxidase Enzyme Absorbance, solutions 1-5 (Day 0, 50 ppm MIT, 5 mg/mL BSA): 1.445 and 1.446 and 1.443 and 1.456 and 1.457
Sarcosine Oxidase Enzyme Absorbance, solutions 1-5 [7]: 1.432 and 1.423 and 1.425 and 1.431 and 1.427
Sarcosine Oxidase Enzyme Absorbance, replicates 7-11 [9]: 0.251 and 0.247 and 0.255 and 0.261 and 0.267
Sarcosine Oxidase Enzyme Absorbance, replicates 7-11 [11]: 1.388 and 1.399 and 1.382 and 1.357 and 1.362
Sarcosine Oxidase Enzyme Absorbance, replicates 7-11 [12]: 1.366 and 1.381 and 1.402 and 1.382 and 1.388
Sarcosine Oxidase Enzyme Absorbance, replicates 7-11 [13]: 1.386 and 1.428 and 1.403 and 1.415 and 1.372
Sarcosine Oxidase Enzyme Absorbance, replicates 7-11 [14]: 1.384 and 1.407 and 1.4 and 1.389 and 1.388
Sarcosine Oxidase Enzyme Absorbance, replicates 7-11 [15]: 0.329 and 0.33 and 0.348 and 0.327 and 0.333
Sarcosine Oxidase Enzyme Absorbance, replicates 7-11 [16]: 0.342 and 0.353 and 0.351 and 0.382 and 0.368
Sarcosine Oxidase Enzyme Absorbance, replicates 7-11 [17]: 1.406 and 1.41 and 1.429 and 1.404 and 1.403
